The source of these data is ChEMBL document CHEMBL1141026, “Synthesis, in vitro antitrypanosomal and antibacterial activity of phenoxy, phenylthio or benzyloxy substituted quinolones” (Bioorg Med Chem Lett, 2009).

The subject of assay [1] is Trypanosoma cruzi. Kind of assay: Antitrypanosomal activity against trypomastigotes of Trypanosoma cruzi Tulahuen C2C4 containing lacZ gene in rat L6 cells after 4 days. The conditions noted are these: L6, 96 h. The class given is functional, organism-based.
Assay [2] deals with Shigella boydii. Put plainly: Antibacterial activity against Shigella boydii after 24 hrs by agar dilution method. The format is functional. On the technique in general: In agar dilution the substance is mixed into plates at graded concentrations.
Assay [3] has as its system Shigella flexneri. Kind of assay: Antibacterial activity against Shigella flexneri after 24 hrs by agar dilution method. The format is functional.
Assay [4] deals with Proteus mirabilis. Kind of assay: Antibacterial activity against Proteus mirabilis after 24 hrs by agar dilution method. The class given is functional.
In assay [5] the test system is Proteus vulgaris. Kind of assay: Antibacterial activity against Proteus vulgaris after 24 hrs by agar dilution method. The class given is functional.
For assay [6], the system named is Pseudomonas aeruginosa. Kind of assay: Antibacterial activity against Pseudomonas aeruginosa after 24 hrs by agar dilution method. The format is functional.
The subject of assay [7] is Morganella morganii. Kind of assay: Antibacterial activity against Morganella morganii after 24 hrs by agar dilution method. The class given is functional.
In assay [8] the test system is Klebsiella pneumoniae. Kind of assay: Antibacterial activity against Klebsiella pneumoniae after 24 hrs by agar dilution method. The format is functional.
Assay [9] deals with Salmonella enterica subsp. enterica. Put plainly: Antibacterial activity against Salmonella enteritidis after 24 hrs by agar dilution method. The class given is functional, Salmonella enterica subsp. enterica serovar Enteritidis.
The test system of assay [10] is Salmonella typhimurium. Kind of assay: Antibacterial activity against Salmonella Typhimurium after 24 hrs by agar dilution method. The class given is functional, Salmonella enterica subsp. enterica serovar Typhimurium. The conditions noted are these: Salmonella enterica.
The test system of assay [11] is Citrobacter freundii. Kind of assay: Antibacterial activity against Citrobacter freundii after 24 hrs by agar dilution method. The class given is functional.
The test system of assay [12] is Aeromonas hydrophila. Put plainly: Antibacterial activity against Aeromonas hydrophila after 24 hrs by agar dilution method. The format is functional.
The subject of assay [13] is Serratia marcescens. Put plainly: Antibacterial activity against Serratia marcescens after 24 hrs by agar dilution method. The format is functional.
Assay [14] concerns Staphylococcus aureus. Put plainly: Antibacterial activity against Staphylococcus aureus after 24 hrs by agar dilution method. The format is functional.
Assay [15] has as its system Streptococcus pneumoniae. Put plainly: Antibacterial activity against Streptococcus pneumoniae after 24 hrs by agar dilution method. The format is functional.
The subject of assay [16] is Staphylococcus. Put plainly: Antibacterial activity against Staphylococcus albus after 24 hrs by agar dilution method. The class given is functional.
The subject of assay [17] is Staphylococcus epidermidis. Kind of assay: Antibacterial activity against Staphylococcus epidermidis after 24 hrs by agar dilution method. The format is functional.
In assay [18] the test system is Enterococcus faecalis. Put plainly: Antibacterial activity against Enterococcus faecalis after 24 hrs by agar dilution method. The format is functional.
Assay [19] concerns Streptococcus. Put plainly: Antibacterial activity against gamma-streptococcus after 24 hrs by agar dilution method. The format is functional.
Assay [20] deals with Escherichia coli. Put plainly: Antibacterial activity against Escherichia coli after 24 hrs by agar dilution method. The format is functional.
Assay [21] deals with Shigella sonnei. Kind of assay: Antibacterial activity against Shigella sonnei after 24 hrs by agar dilution method. The format is functional.
For assay [22], the system named is Trypanosoma cruzi. Kind of assay: Antitrypanosomal activity against Trypanosoma cruzi amastigotes at 250 uM.
The subject of assay [23] is Trypanosoma cruzi. Put plainly: Antitrypanosomal activity against Trypanosoma cruzi DM28 epimastigotes at 200 ug/ml after 96 hrs. The format is functional.

In brackets after ≈: the same amount, converted by molar mass. Bounds are passed on as bounds.

For `CCn1cc(C(=O)O)c(=O)c2cc(F)c(Oc3ccc(C)cc3)c(Oc3ccc(C)cc3)c21`, 19.4 µg/mL (≈ 43.4 µM) corresponded to half-maximal inhibition in [1] (IC50).
For the molecule `CCn1cc(C(=O)O)c(=O)c2cc(F)c(Oc3ccc(Cl)cc3Cl)c(Oc3ccc(Cl)cc3Cl)c21`, the IC50 (as a rule, the concentration that gives 50% inhibition) in assay [1] was 12.7 µg/mL (≈ 22.8 µM).
For `CCn1cc(C(=O)O)c(=O)c2cc(F)c(Sc3ccc(F)cc3)c(Sc3ccc(F)cc3)c21`, in [1], the IC50 is 6.2 µg/mL (≈ 12.7 µM).
On to `CCn1cc(C(=O)O)c(=O)c2cc(F)c(Sc3ccccc3)c(Sc3ccccc3)c21`, for which half-maximal inhibition in [1] (IC50) required 19.3 µg/mL (≈ 42.7 µM).
Consider `CCn1cc(C(=O)O)c(=O)c2cc(F)c(Oc3ccc(C)cc3)c(F)c21`, for which the MIC (as a rule, the lowest concentration that inhibits growth of the organism) in assay [2] was 6.25 µg/mL (≈ 17.4 µM); in [3], more than 25 µg/mL; in assay [4], 25 µg/mL (≈ 69.6 µM); in [5] it was more than 25 µg/mL; in assay [6] it was more than 25 µg/mL; in [7], 25 µg/mL (≈ 69.6 µM). The MIC in assay [8] is 6.25 µg/mL (≈ 17.4 µM); in [9] it was 25 µg/mL (≈ 69.6 µM); in [10], 25 µg/mL (≈ 69.6 µM); in assay [11], 12.5 µg/mL (≈ 34.8 µM); in assay [12], 25 µg/mL (≈ 69.6 µM); in [13], more than 25 µg/mL. The MIC in [14] was 0.78 µg/mL (≈ 2.17 µM); in assay [15] it was 0.39 µg/mL (≈ 1.09 µM); in assay [16], 12.5 µg/mL (≈ 34.8 µM); in [17], 6.25 µg/mL (≈ 17.4 µM); in assay [18], more than 25 µg/mL; in assay [19], more than 25 µg/mL. For the same molecule, the figures for the MIC in assay [20] and in assay [21] were 25 µg/mL (≈ 69.6 µM) and 12.5 µg/mL (≈ 34.8 µM), respectively. In assay [1], this molecule returned a concentration for half-maximal inhibition (IC50) of 18.3 µg/mL (≈ 50.9 µM).
Regarding `CCn1cc(C(=O)O)c(=O)c2cc(Oc3ccc(C)cc3)c(Oc3ccc(C)cc3)c(Oc3ccc(C)cc3)c21`, in assay [1], the IC50 is more than 90 µg/mL.
Molecule `O=C(O)c1cn(C2CC2)c2c(Sc3ccccc3)c(Sc3ccccc3)c(F)cc2c1=O` had an IC50 in [1] of 17.8 µg/mL (≈ 38.4 µM).
Same read-out and setting: to `CCn1cc(C#N)c(=O)c2cc(F)c(Oc3ccccc3)c(Oc3ccccc3)c21` belongs more than 90 µg/mL; to `C=Cn1cc(C(=O)O)c(=O)c2cc(F)c(OCc3ccccc3)c(OCc3ccccc3)c21`, 6.2 µg/mL (≈ 13.9 µM).
`CCn1cc(C(=O)OC)c(=O)c2cc(F)c(OCc3ccccc3)c(OCc3ccccc3)c21` yielded an IC50 in assay [1] of 3.8 µg/mL (≈ 8.23 µM).
`CCn1cc(C(=O)O)c(=O)c2cc(F)c(Oc3ccccc3)c(Oc3ccccc3)c21` registered an IC50 in assay [1] of more than 90 µg/mL.
The same measure, in the same setting: to `CCn1cc(C(=O)O)c(=O)c2cc(F)c(Sc3ccc(Cl)cc3)c(Sc3ccc(Cl)cc3)c21` belongs 16.3 µg/mL (≈ 31.3 µM).
With `O=C(Cn1ccnc1[N+](=O)[O-])NCc1ccccc1` [BENZNIDAZOLE], the IC50 in assay [1] worked out at 0.83 µg/mL (≈ 3.19 µM).
Take `O=C(O)c1cn(C2CC2)c2cc(N3CCNCC3)c(F)cc2c1=O` [CIPROFLOXACIN]: the Activity in assay [22] is on record as 26%.
As for `CCn1cc(C(=O)O)c(=O)c2cc(F)c(N3CCNC(C)C3)c(F)c21` (stereo not given) [LOMEFLOXACIN], the MIC came out at 0.098 µg/mL (≈ 0.279 µM) in assay [2]; 0.78 µg/mL (≈ 2.22 µM) in assay [3]; 0.39 µg/mL (≈ 1.11 µM) in [4]; 0.78 µg/mL (≈ 2.22 µM) in assay [5]; 3.13 µg/mL (≈ 8.91 µM) in assay [6]; 0.195 µg/mL (≈ 0.555 µM) in [7]. Also, the MIC in [8] came out at 0.098 µg/mL (≈ 0.279 µM); in assay [9], 0.098 µg/mL (≈ 0.279 µM); in assay [10] it was 0.195 µg/mL (≈ 0.555 µM); in assay [11], 0.098 µg/mL (≈ 0.279 µM); in [12] it was 6.25 µg/mL (≈ 17.8 µM); in assay [13], 0.195 µg/mL (≈ 0.555 µM). Moreover, the MIC in assay [14] came out at 0.78 µg/mL (≈ 2.22 µM); in [15] it was 0.195 µg/mL (≈ 0.555 µM); in [16], 3.13 µg/mL (≈ 8.91 µM); in assay [17], 0.78 µg/mL (≈ 2.22 µM); in [18], 25 µg/mL (≈ 71.2 µM); in [19] it was 6.25 µg/mL (≈ 17.8 µM). The MIC in assay [20] and in assay [21] was 0.098 µg/mL (≈ 0.279 µM) throughout.
Turning to `CCn1cc(C(=O)O)c(=O)c2ccc(C)nc21` [NALIDIXIC ACID], in [23], the Activity came to 60%.
